Test results published in article PMC9977294, “A parasitic fungus employs mutated eIF4A to survive on rocaglate-synthesizing Aglaia plants” (eLife, 2023).
Where “and” joins values, the source holds several entries; their conditions need not be identical. Equal values may be shown once. Entries after “also recorded” stand apart in the source; their conditions may differ.

Experiments:
[1] = test system: C. orbiculare eIF4A^His153Gly conidia and mycelia; assay: Ribosome profiling and RNA-Seq, translation efficiency change; assay type: cell-based, Colletotrichum orbiculare; settings: 3 µM aglafoline, 6 h, compared with eIF4A^WT
Description: (§1) Glycerol stocks of C. orbiculare eIF4A^WT#1 and eIF4A^H153G#1 strains were streaked on PDA in 90 mm plastic Petri dishes and incubated for 3 days. A single colony of each strain was transferred onto PDA and incubated for 3 days. The outer edges of colonies were transferred to 90 mm plastic dishes filled with 20 ml of PDB using plastic straws and incubated for 4 days. Aglafoline (0.3 or 3 µM) or DMSO was added to dishes and incubated for 6 h.
(§2) A single colony from the glycerol stocks was cultured by the same method used for mycelium preparation. The outer edges of colonies of each strain were transferred into six 300 ml flasks filled with 100 ml of PDA. Two milliliters of sterilized water was added to each flask, and the flasks were shaken well to ensure that the mycelial cells adhered to the entire surface of the PDA evenly. After 6 days of incubation in the dark, conidia generated on the surface of PDA were suspended in 20 ml of sterilized water. […]
(§3) Sequence data were processed as previously described ([McGlincy and Ingolia, 2017]) with modifications. For ribosome profiling, using the Fastp v0.21.0 ([Chen et al., 2018]) tool, sequences of reads 1 were corrected by reads 2, and quality filtering and adapter sequence removal were performed on reads 1. The adapter-removed reads 1 were split by the barcode sequence. […]

[2] = test system: C. orbiculare eIF4A^WT conidia and mycelia; assay: as above; assay type: cell-based, Colletotrichum orbiculare; settings: 0.3 or 3 µM aglafoline, 6 h
Description: as §1, §2, §3

C. orbiculare eIF4A^WT = assay: In planta fungal biomass on cucumber cotyledons (RT-qPCR); assay type: in vivo, Colletotrichum orbiculare
Description: Fungal inoculation was performed as previously described ([Hiruma and Saijo, 2016]; [Kumakura et al., 2019]) with modifications. Cucumber cotyledons were used for C. orbiculare inoculation. Seeds of cucumber, Cucumis sativus Suyo strain (Sakata Seed Corp.), were planted on a mix of equal amounts of vermiculite (VS Kakou) and Supermix A (Sakata Seed Corp.). Cucumbers were grown at 24°C under a 10 hr light/14 hr dark cycle using biotrons (NK Systems). Cotyledons were detached from seedlings of cucumbers and inoculated with C. orbiculare at 13 days post-germination. C. orbiculare strains (eIF4A^WT#1 and eIF4A^H153G#1, Supplementary file 4) were cultured on 100 ml of 3.9% PDA in a 300 ml flask at 25°C for 6 days in the dark. […] The concentration of conidia was measured with disposable hemacytometers (Funakoshi) and adjusted to 10^5 conidia/ml with or without aglafoline (1 µM). […]
The living fungal biomass in cucumber leaves at 3.5 days postinoculation (dpi) was measured by RT-qPCR. Relative expression levels of the C. orbiculare 60S ribosomal protein L5 gene (GenBank: Cob_v012718) ([Gan et al., 2013]) normalized to that of a cucumber cyclophilin gene (GenBank: AY942800.1) ([Liang et al., 2018]) were determined. […]

COC(=O)[C@H]1[C@@H](O)[C@@]2(O)c3c(OC)cc(OC)cc3O[C@@]2(c2ccc(OC)cc2)[C@@H]1c1ccccc1 [Aglafoline, methyl rocaglate]
translation efficiency change [1]: attenuated by the His153Gly substitution | translation efficiency change [2]: a subset of mRNAs showed high aglafoline sensitivity in terms of translation efficiency in conidia; also recorded: the reduction was compound dose dependent | in planta fungal biomass (C. orbiculare eIF4A^WT; cucumber leaves, 1 µM aglafoline, 3 dpi, Figure 4B): reduced the biomass of the WT eIF4A-recombined strain on cucumber leaves | In planta fungal biomass (Figure 4B source data), single replicates (C. orbiculare eIF4A^WT; eIF4AWT, aglafoline +, Replicate 1-8): 0.01241 and 0.4556 and 0.03831 and 0.01038 and 0.09347 and 0.5781 and 0.1819 and 0.09019
